According to EP1350541A1, “Use of dehydroepiandrosterone and an estradiol derivative for preparing a medicament for treating postmenopausal climacteric disorders” (priority 2002, dated 2003):
Read-outs that look alike come from different tables or passages of the source.

Key:
bcl-2 = test: Expression of the antiapoptotic gene bcl-2 in the hippocampus of ovariectomised rats; format: in vivo, Ratten; details: female ovariectomised rats; vs OVX control (p<0.01); Abbildung 4
[1] = tested on: Oxytocin (Nachweis der OT mRNA); test: Induction of the estrogen-dependent oxytocin gene (OT mRNA) in the brain of ovariectomised rats; format: in vivo, Ratten; details: brain of female ovariectomised rats; Abbildung 3
Text: (§1) In Abbildung 3 werden zwei weitere Beispiele für typische Estrogenwirkungen im Gehirn von weiblichen, ovarektomierten Ratten dargestellt. […] (* Bedeutet statistisch signifikant gegenüber der Kontrollgruppe (p<0.01))

Uterus = test: Estrogenic effect on the uterus (uterine mass) of ovariectomised rats; format: in vivo, Ratten; details: female ovariectomised rats, in contrast to 17β-Estradiol; for estrogene Wirkung auf den Uterus (Zunahme der Uterusmasse): Abbildung 3
[2] = tested on: induzierbaren Stickstoffmonoxid-Oxidase (iNOS); test: Inhibition of NO release (iNOS) in the brain of ovariectomised rats; format: in vivo, Ratten; details: female ovariectomised rats; compared with 17β-Estradiol; Abbildung 2; significant vs OVX control (p<0.01)
Text: Eine der typischen Estrogenwirkungen im Gehirn ist die Hemmung der induzierbaren […] (iNOS). […] Die Kontrollgruppe sind ovarektomierte Tiere (OVX), die nur mit dem Lösungsmittel behandelt worden sind. (* Bedeutet statistisch signifikant gegenüber der Kontrollgruppe (p<0.01))

[3] = tested on: Corticotropin-Releaseinghormon (Nachweis der CRH mRNA); test: Induction of the estrogen-dependent CRH gene (CRH mRNA) in the brain of ovariectomised rats; format: in vivo, Ratten; details: brain of female ovariectomised rats; Abbildung 3
Text: as §1

[4] = Stabilisation of the unstable steroids in drug formulations by stabilisers; format: physicochemical
Text: Eine hinreichende Haltbarkeit der an sich sehr instabilen Steroide in Arzneimittelformulierungen wird insbesondere erreicht, wenn ein Stabilisator vorliegt. […] In einer bevorzugten Ausführungsform des erfindungsgemäßen Arzneimittels wird deshalb das Steroid mit Ascorbinsäure stabilisiert. […] Die Konzentration des Stabilisators Ascorbinsäure ist vom Gehalt des Steroids abhängig. Je nach dessen Gehalt werden bei Weichgelatinekapseln 0,1 % bis 1 % Ascorbinsäure, bezogen auf die Füllmasse, eingesetzt.

[5] = Clinical study in healthy women: serum testosterone after oral DHEA, with dexamethasone suppression; format: in vivo, Frauen; details: single dose of dexamethasone, 100 mg DHEA oral, Abbildung 5
Text: In Abbildung 5 werden daher Ergebnisse einer klinischen Studie mit gesunden Frauen dargestellt. Zur kurzzeitigen Unterdrückung der körpereigenen Steroidproduktion erhielten die Probandinnen einmalig Dexamethason. […] Damit ist der Nachweis geführt, daß DHEA bei Frauen nach oraler Aufnahme im Körper zu dem sehr wirksamen Androgen Testosteron umgewandelt wird, d.h. DHEA ist bei Frauen ein Prodrug für Testosteron.

[6] = 100 mg/Tag oral; Arlt et al., New Engl J Med 1999; cited from earlier work

Row | Compound | Expression des antiapoptotischen Gens bcl-2 im Hippocampus (bcl-2) | Induktion der estrogenabhängigen Gene für Oxytocin (OT mRNA) [1] | Induktion der estrogenabhängigen Gene für Corticotropin-Releaseinghormon (CRH mRNA) [3] | stabilisierende Wirkung (Haltbarkeit der Steroide in Arzneimittelformulierungen) [4] | other results
1 | C[C@]12CC[C@@H]3c4ccc(O)cc4CC[C@H]3[C@@H]1CC[C@H]2O [17α-Estradiol] | im Gegensatz |  |  |  | 
2 | C[C@]12CCC3=C(CCc4cc(O)ccc43)[C@@H]1CC[C@H]2O [J 811, Estra-1,3,5(10),8-tetraen-3,17α-diol] |  | gelingt | gelingt |  | estrogene Wirkung auf den Uterus (Zunahme der Uterusmasse) (Uterus): nicht nachweisbar; Hemmung der Freisetzung von NO [2]: genauso stark wie bei dem wichtigsten körpereigenen Estrogen, dem 17β-Estradiol
3 | CCCCCCCCCCCCCCCC(=O)OC[C@H](O)[C@H]1OC(=O)C(O)=C1O [Ascorbylpalmitat] |  |  |  | deutlich weniger effektiv | 
4 | O=C1O[C@H]([C@@H](O)CO)C(O)=C1O [Ascorbinsäure] |  |  |  |  | stabilisierende Wirkung (Haltbarkeit der Steroide in Arzneimittelformulierungen) ([4]; stabiliser added to the steroid formulation): besonders wirksam
5 | C[C@]12CCC3=C(CCc4cc(O)ccc43)[C@@]13C[C@H]3C[C@H]2O [J 861, 14α, 15α-Methylenestra-1,3,5(10),8-tetraen-3,17α-diol] | signifikant erhöht | gelingt | gelingt |  | estrogene Wirkung auf den Uterus (Zunahme der Uterusmasse) (Uterus): nicht nachweisbar; Wirkung auf den Uterus (Uterus; Abbildung 4): keinerlei Wirkung auf den Uterus; Hemmung der Freisetzung von NO [2]: genauso stark wie bei dem wichtigsten körpereigenen Estrogen, dem 17β-Estradiol
6 | COc1ccc(O)c(C(C)(C)C)c1 [Butylhydroxyanisol] |  |  |  | deutlich weniger effektiv | 
7 | C[C@]12CC[C@@H]3c4ccc(O)cc4CC[C@H]3[C@@H]1CC[C@@H]2O [17β-Estradiol, reference compound] | signifikant erhöht | gelingt | gelingt |  | 
8 | C[C@]12CC[C@H](O)CC1=CC[C@@H]1[C@@H]2CC[C@]2(C)C(=O)CC[C@@H]12 [DHEA, Dehydroepiandrosteron] |  |  |  |  | Serum-Testosteronkonzentrationen [5]: auf das Niveau der unbehandelten Kontrollen hebt; unerwünschte Virilisierungserscheinungen [6]: keine unerwünschten Virilisierungserscheinungen
9 | Cc1cc(C(C)(C)C)c(O)c(C(C)(C)C)c1 [Butylhydroxytoluol] |  |  |  | deutlich weniger effektiv | 
